In the assay the test system is antenna of a male adult of peach fruit moth. In words: GC-EAD (electroantennographic detection) of the extract of peach fruit moth. On the set-up: species or system Carposina sasakii. To be noted: GC-EAD of pheromone gland extract; male adult 3 to 5 days after eclosion. The method, then: An EAD chart of the extract of peach fruit moth (Carposina sasakii) is shown in FIG. 1A and a GC chart of the extract is shown in FIG. 1B. […] In FIG. 1B, the peaks for components (5) and (6) were at the detection limit or less so that they were not detected.
In this time zone, the pheromone gland was excised from a virgin female adult (2 to 3 days old) under a microscope and immersed in n-hexane for 30 minutes. Then the insect body tissues were removed from the extraction liquid by filtration to produce an extract of peach fruit moth.
A GC-EAD (Gas Chromatography-Electroantennographic Detection) chart of the above extract of peach fruit moth is shown in FIG. 1.
Structural analyses of dimethyl disulfide (DMDS) adducts was conducted for each of the unsaturated bond sites of the monoene components. Finally, it was found in comparison with the retention times and mass spectra of the corresponding synthesized products that the components (1) to (6) were docosane, tricosane, (Z)-7-tricosene, (Z)-5-pentacosene, (Z)-12-nonadecen-9-one and (Z)-7-heneicosen-11-one, respectively, and the mixing weight ratio thereof was 6:341:432:36:2:8 with respect to 100 of (Z)-13-eicosen-10-one. FIGS. 2 to 7 show the mass spectra of the components (1) to (6) in the extract of peach fruit moth, while FIGS. 8 to 13 show the mass spectra of the commercial products and synthesized compounds.

Each structure is given as a SMILES string.

This note sets out measurements from patent US20170079267A1, “SEX PHEROMONE COMPOSITION OF PEACH FRUIT MOTH AND ATTRACTANT COMPRISING THE SAME” (SHIN-ETSU CHEMICAL CO., LTD., priority 2011, published 2017).

As for `CCCCCC/C=C\CCC(=O)CCCCCCCCC` [(Z)-13-eicosen-10-one], the “potential response of the antenna of a male adult (EAD)” value is given as “showed a potential response”.
